Key:
Assay in all cases: SILAC LC-MS ABPP
Type in all cases: cell-based
Details in all cases: 25 μM 2 h, live DM93 cells
[1] = target: T1, O43156 (Homo sapiens, UniProt O43156)
T1 construct: endogenous in cells; host or cells: DM93
In short: (§1)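 Readout is SILAC heavy/light LC-MS/MS quantification of HHS-475-labelled tyrosine peptides, reflecting blockade of probe labelling by ligand. DM93 cells were pretreated with 25 μM SuTEx ligand (heavy) or DMSO (light) for 2 h at 37 °C, then probed with 100 μM HHS-475 for 2 h.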

[2] = target: T2, P49792 (Homo sapiens, UniProt P49792)
T2 construct: endogenous in cells; host or cells: DM93 cells (SILAC)
In short: as §1

[3] = target: T3, P53621 (Homo sapiens, UniProt P53621)
T3 construct: endogenous in cells; host or cells: DM93 cells (SILAC)
In short: as §1

[4] = target: T4, Q92900 (Homo sapiens, UniProt Q92900)
T4 construct: endogenous in cells; host or cells: DM93 cells (SILAC), live-cell treatment
In short: as §1

[5] = target: T5, P19174 (Homo sapiens, UniProt P19174)
T5 construct: endogenous in cells; host or cells: DM93 (SILAC)
In short: as §1

[6] = target: T6, P61326 (Homo sapiens, UniProt P61326)
T6 construct: performing SuTEx compound screening directly in cells; endogenous in cells; host or cells: DM93 cells (SILAC)
In short: as §1

[7] = target: T7, P62263 (Homo sapiens, UniProt P62263)
T7 construct: performing SuTEx compound screening directly in cells; endogenous in cells; host or cells: DM93 cells (SILAC)
In short: as §1

[8] = target: T8, P62993 (Homo sapiens, UniProt P62993)
T8 construct: performing SuTEx compound screening directly in cells; endogenous in cells; host or cells: DM93 cells (SILAC)
In short: as §1

[9] = target: T9, Q15654 (Homo sapiens, UniProt Q15654)
T9 construct: performing SuTEx compound screening directly in cells; endogenous in cells; host or cells: DM93 cells (SILAC), soluble fraction
In short: as §1

[10] = target: T10, Q8IWS0 (Homo sapiens, UniProt Q8IWS0)
T10 construct: endogenous in cells; host or cells: DM93 cells (SILAC), live-cell treatment
In short: as §1

[11] = target: T11, P30086 (Homo sapiens, UniProt P30086)
T11 construct: endogenous in cells; host or cells: DM93 (SILAC)
In short: as §1

[12] = target: T12, Q14694 (Homo sapiens, UniProt Q14694)
T12 construct: performing SuTEx compound screening directly in cells; endogenous in cells; host or cells: DM93 cells (SILAC), soluble fraction
In short: as §1

[13] = target: T13, O43823 (Homo sapiens, UniProt O43823)
T13 construct: endogenous in cells; host or cells: DM93
In short: as §1

[14] = target: T14, P05455 (Homo sapiens, UniProt P05455)
T14 construct: endogenous in cells; host or cells: DM93 cells (SILAC)
In short: as §1

[15] = target: T15, P12268 (Homo sapiens, UniProt P12268)
T15 construct: endogenous in cells; host or cells: DM93 cells (SILAC)
In short: as §1

[16] = target: T16, O14777 (Homo sapiens, UniProt O14777)
T16 construct: endogenous in cells; host or cells: DM93
In short: as §1

[17] = target: T17, P09960 (Homo sapiens, UniProt P09960)
T17 construct: endogenous in cells; host or cells: DM93 cells (SILAC)
In short: as §1

[18] = target: T18, P51665 (Homo sapiens, UniProt P51665)
T18 construct: endogenous in cells; host or cells: DM93 cells (SILAC)
In short: as §1

[19] = target: T19, Q9P2B4 (Homo sapiens, UniProt Q9P2B4)
T19 construct: endogenous in cells; host or cells: DM93 cells (SILAC)
In short: as §1

T17 sequence (P09960 whole entry): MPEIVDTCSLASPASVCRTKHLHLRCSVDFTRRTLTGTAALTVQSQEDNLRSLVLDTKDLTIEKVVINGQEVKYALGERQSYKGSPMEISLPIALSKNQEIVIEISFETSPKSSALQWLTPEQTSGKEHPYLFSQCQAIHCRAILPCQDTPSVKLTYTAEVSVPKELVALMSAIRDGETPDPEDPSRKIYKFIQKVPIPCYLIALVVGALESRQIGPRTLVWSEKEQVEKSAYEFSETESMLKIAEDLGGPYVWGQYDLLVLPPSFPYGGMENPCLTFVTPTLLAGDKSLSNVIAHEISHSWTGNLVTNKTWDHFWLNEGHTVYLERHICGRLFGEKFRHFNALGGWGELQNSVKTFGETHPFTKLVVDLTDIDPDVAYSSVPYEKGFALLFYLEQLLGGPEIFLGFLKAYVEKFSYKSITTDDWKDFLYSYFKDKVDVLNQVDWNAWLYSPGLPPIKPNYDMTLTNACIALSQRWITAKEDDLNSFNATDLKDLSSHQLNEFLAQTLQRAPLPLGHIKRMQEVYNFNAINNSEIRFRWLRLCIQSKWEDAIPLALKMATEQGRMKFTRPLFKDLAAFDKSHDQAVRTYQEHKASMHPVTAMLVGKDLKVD
T4 sequence (Q92900 whole entry): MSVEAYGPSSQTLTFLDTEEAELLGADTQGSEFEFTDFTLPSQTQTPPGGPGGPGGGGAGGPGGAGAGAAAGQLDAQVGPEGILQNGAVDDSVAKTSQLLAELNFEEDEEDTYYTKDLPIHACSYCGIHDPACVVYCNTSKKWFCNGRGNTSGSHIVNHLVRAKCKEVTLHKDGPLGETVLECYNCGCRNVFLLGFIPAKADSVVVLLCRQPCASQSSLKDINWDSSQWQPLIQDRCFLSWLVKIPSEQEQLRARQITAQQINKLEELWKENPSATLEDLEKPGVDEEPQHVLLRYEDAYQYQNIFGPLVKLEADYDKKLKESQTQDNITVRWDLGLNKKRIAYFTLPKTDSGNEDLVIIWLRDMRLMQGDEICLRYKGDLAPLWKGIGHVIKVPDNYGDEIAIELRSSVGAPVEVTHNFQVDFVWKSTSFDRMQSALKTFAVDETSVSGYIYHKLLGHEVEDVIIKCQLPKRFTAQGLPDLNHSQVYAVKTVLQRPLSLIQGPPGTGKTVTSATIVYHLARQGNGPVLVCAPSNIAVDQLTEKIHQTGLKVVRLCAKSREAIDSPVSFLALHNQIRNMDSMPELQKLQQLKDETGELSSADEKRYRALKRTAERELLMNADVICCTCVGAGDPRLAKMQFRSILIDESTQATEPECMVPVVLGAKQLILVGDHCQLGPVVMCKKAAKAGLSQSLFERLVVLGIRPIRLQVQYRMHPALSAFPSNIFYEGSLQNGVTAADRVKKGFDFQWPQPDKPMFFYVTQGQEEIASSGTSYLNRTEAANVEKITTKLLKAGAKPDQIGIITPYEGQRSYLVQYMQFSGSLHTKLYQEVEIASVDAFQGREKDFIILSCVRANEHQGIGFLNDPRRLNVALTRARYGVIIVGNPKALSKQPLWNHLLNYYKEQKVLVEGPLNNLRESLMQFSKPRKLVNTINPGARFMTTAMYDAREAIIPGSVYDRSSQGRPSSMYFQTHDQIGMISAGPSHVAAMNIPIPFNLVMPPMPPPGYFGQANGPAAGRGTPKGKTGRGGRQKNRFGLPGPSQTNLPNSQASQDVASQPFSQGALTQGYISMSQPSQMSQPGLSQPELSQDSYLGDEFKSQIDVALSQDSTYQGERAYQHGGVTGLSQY
T3 sequence (P53621 whole entry): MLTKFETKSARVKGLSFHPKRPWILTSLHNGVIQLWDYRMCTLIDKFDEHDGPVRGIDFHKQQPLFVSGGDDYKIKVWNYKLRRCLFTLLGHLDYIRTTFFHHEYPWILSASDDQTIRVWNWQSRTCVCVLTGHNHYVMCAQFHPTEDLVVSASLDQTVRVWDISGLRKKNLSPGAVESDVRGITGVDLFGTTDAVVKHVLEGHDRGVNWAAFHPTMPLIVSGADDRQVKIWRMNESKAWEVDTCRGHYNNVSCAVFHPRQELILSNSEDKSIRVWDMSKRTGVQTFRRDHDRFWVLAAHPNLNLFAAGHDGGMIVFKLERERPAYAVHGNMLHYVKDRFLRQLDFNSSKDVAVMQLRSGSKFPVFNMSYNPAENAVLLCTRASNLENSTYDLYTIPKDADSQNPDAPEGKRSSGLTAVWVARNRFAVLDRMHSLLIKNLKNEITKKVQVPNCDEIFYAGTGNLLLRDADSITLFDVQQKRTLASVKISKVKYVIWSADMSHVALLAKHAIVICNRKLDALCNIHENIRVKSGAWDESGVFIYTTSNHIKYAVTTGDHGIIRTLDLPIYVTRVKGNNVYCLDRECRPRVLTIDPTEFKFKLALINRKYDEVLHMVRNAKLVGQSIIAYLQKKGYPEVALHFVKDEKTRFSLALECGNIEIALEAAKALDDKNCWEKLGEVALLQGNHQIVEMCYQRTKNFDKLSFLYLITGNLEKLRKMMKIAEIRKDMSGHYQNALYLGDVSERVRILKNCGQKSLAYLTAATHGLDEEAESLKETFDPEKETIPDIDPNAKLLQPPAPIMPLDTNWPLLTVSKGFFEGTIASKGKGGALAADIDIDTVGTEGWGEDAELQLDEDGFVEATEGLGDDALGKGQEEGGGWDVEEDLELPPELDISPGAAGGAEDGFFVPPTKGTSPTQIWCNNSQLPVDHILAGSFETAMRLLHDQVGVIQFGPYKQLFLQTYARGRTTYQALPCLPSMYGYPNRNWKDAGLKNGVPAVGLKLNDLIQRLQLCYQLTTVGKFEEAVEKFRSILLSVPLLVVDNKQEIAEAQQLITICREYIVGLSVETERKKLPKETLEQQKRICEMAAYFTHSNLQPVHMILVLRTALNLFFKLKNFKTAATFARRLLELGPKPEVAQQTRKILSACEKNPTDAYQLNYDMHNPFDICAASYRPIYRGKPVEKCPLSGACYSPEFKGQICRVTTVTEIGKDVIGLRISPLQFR
T16 sequence (O14777 whole entry): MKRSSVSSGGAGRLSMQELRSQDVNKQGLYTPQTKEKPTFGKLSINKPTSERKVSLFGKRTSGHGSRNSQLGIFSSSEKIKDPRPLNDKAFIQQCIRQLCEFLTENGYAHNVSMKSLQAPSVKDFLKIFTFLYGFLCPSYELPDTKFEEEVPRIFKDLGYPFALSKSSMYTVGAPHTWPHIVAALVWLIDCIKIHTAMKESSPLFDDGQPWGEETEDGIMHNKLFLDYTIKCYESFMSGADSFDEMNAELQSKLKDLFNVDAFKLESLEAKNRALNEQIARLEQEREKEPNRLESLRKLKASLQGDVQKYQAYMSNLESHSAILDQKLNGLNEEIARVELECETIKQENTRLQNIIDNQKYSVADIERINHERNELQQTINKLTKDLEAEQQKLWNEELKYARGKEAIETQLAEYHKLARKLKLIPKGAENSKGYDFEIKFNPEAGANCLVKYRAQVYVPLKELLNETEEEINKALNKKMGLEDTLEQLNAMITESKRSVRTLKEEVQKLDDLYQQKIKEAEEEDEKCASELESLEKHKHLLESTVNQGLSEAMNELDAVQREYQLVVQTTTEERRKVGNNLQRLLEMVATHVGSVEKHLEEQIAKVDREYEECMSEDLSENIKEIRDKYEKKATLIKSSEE
T19 sequence (Q9P2B4 whole entry): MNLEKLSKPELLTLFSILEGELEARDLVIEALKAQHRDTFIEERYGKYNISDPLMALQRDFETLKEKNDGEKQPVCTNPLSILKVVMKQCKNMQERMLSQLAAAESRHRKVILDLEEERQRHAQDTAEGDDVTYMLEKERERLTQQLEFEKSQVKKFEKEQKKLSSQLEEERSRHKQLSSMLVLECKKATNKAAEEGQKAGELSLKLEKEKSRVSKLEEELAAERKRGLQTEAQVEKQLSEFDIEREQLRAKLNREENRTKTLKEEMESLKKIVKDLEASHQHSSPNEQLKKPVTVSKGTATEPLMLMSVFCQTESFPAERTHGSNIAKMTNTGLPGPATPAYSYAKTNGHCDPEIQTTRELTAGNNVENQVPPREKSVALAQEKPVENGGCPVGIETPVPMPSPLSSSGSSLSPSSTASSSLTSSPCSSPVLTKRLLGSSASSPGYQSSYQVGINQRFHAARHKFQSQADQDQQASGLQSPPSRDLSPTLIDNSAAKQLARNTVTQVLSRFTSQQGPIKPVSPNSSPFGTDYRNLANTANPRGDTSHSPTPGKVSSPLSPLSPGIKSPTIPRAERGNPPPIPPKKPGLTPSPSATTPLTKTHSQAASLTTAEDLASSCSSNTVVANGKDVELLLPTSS
T14 sequence (P05455 whole entry): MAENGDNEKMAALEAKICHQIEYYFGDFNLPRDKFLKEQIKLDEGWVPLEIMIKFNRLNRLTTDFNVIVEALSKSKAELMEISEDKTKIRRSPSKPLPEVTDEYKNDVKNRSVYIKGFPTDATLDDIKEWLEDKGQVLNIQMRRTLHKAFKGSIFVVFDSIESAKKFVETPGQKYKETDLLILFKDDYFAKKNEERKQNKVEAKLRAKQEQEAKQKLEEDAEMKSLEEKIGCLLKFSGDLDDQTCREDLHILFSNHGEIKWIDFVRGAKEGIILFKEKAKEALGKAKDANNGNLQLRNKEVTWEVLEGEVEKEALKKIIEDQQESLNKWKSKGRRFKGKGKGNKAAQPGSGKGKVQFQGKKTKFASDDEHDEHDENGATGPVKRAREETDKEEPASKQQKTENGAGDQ
T6 sequence (P61326 whole entry): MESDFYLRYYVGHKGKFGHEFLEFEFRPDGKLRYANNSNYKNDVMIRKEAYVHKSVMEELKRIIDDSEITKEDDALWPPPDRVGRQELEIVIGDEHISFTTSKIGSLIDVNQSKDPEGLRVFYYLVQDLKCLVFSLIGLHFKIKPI
T11 sequence (P30086 whole entry): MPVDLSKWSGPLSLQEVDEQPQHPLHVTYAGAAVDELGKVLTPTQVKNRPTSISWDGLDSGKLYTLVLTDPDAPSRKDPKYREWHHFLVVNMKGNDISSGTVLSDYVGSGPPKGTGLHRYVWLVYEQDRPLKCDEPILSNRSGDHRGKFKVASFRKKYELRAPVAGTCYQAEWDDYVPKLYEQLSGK

## O=C(NC1CC1)c1ccc(S(=O)(=O)n2cncn2)cc1 [HHS-0101, 4-((1H-1,2,4-triazol-1-yl)sulfonyl)-N-cyclopropylbenzamide]
[1]
  liganded tyrosine site 51: HHS0101.Y|HHS0401.Y|HHS0701.Y (tyrosine sites that showed >80% reductions (SR >5) in probe labeling in cells treated with compounds (liganded sites))
[2]
  liganded tyrosine site 1983: HHS0101.Y (tyrosine sites that showed >80% reductions (SR >5) in probe labeling in cells treated with compounds (liganded sites))
[3]
  liganded tyrosine site 628: HHS0101.Y|HHS0401.Y|HHS0701.Y (tyrosine sites that showed >80% reductions (SR >5) in probe labeling in cells treated with compounds (liganded sites))
[4]
  liganded tyrosine site 518: HHS0101.Y|HHS0201.Y|HHS0401.Y|HHS0701.Y (tyrosine sites that showed >80% reductions (SR >5) in probe labeling in cells treated with compounds (liganded sites))
  liganded tyrosine site 946: HHS0101.Y (tyrosine sites that showed >80% reductions (SR >5) in probe labeling in cells treated with compounds (liganded sites))

## O=C(NCC1CC1)c1ccc(S(=O)(=O)n2cncn2)cc1 [HHS-0201, 4-((1H-1,2,4-triazol-1-yl)sulfonyl)-N-(cyclopropylmethyl)benzamide]
[5]
  liganded tyrosine site 472: HHS0201.Y (tyrosine sites that showed >80% reductions (SR >5) in probe labeling in cells treated with compounds (liganded sites))
[6]
  liganded tyrosine site 34: HHS0201.Y (tyrosine sites that showed >80% reductions (SR >5) in probe labeling in cells treated with compounds (liganded sites))
[7]
  liganded tyrosine site 72: HHS0201.Y|HHS0301.Y (tyrosine sites that showed >80% reductions (SR >5) in probe labeling in cells treated with compounds (liganded sites))
[8]
  liganded tyrosine site 160: HHS0201.Y (tyrosine sites that showed >80% reductions (SR >5) in probe labeling in cells treated with compounds (liganded sites))
[9]
  liganded tyrosine site 157: HHS0201.Y (tyrosine sites that showed >80% reductions (SR >5) in probe labeling in cells treated with compounds (liganded sites))
[10]
  liganded tyrosine site 303: HHS0201.Y (tyrosine sites that showed >80% reductions (SR >5) in probe labeling in cells treated with compounds (liganded sites))

## O=C(NC1CCCCC1)c1ccc(S(=O)(=O)n2cncn2)cc1 [HHS-0301, 4-((1H-1,2,4-triazol-1-yl)sulfonyl)-N-cyclohexylbenzamide]
[11]
  liganded tyrosine site 106: HHS0301.Y (tyrosine sites that showed >80% reductions (SR >5) in probe labeling in cells treated with compounds (liganded sites))
[12]
  liganded tyrosine site 359: HHS0301.Y (tyrosine sites that showed >80% reductions (SR >5) in probe labeling in cells treated with compounds (liganded sites))

## O=C(NCc1ccccc1)c1ccc(S(=O)(=O)n2cncn2)cc1 [HHS-0401, 4-((1H-1,2,4-triazol-1-yl)sulfonyl)-N-benzylbenzamide]
[13]
  liganded tyrosine site 436: HHS0401.Y (tyrosine sites that showed >80% reductions (SR >5) in probe labeling in cells treated with compounds (liganded sites))
[14]
  liganded tyrosine site 188: HHS0401.Y (tyrosine sites that showed >80% reductions (SR >5) in probe labeling in cells treated with compounds (liganded sites))
[15]
  liganded tyrosine site 233: HHS0401.Y (tyrosine sites that showed >80% reductions (SR >5) in probe labeling in cells treated with compounds (liganded sites))

## O=C(c1ccc(S(=O)(=O)n2cncn2)cc1)N1CCC(c2ccccc2)CC1 [HHS-0701, (4-((1H-1,2,4-triazol-1-yl)sulfonyl)phenyl)(4-phenylpiperidin-1-yl)methanone]
[16]
  liganded tyrosine site 310: HHS0701.Y (tyrosine sites that showed >80% reductions (SR >5) in probe labeling in cells treated with compounds (liganded sites))
[17]
  liganded tyrosine site 379: HHS0701.Y (tyrosine sites that showed >80% reductions (SR >5) in probe labeling in cells treated with compounds (liganded sites))
  liganded tyrosine site 384: HHS0701.Y (tyrosine sites that showed >80% reductions (SR >5) in probe labeling in cells treated with compounds (liganded sites))
[18]
  liganded tyrosine site 74: HHS0701.Y (tyrosine sites that showed >80% reductions (SR >5) in probe labeling in cells treated with compounds (liganded sites))
[19]
  liganded tyrosine site 343: HHS0701.Y (tyrosine sites that showed >80% reductions (SR >5) in probe labeling in cells treated with compounds (liganded sites))

Source: patent US20240210412A1, “SULFONYL-TRIAZOLE COMPOUNDS USEFUL AS LIGANDS AND INHIBITORS OF PROSTAGLANDIN REDUCTASE 2” (University of Virginia Patent Foundation, priority 2021, published 2024)
